# Key:
# Test in all cases: relative viability (nuclei count vs DMSO), 5 days (fraction); higher = more cells survive
# AZ505 + Pemetrexed = compound: C1CCC(CC1)N(CCNCCC2=C3C(=C(C=C2)O)NC(=O)CO3)C(=O)CCNCCC4=CC(=C(C=C4)Cl)Cl [AZ505] + Nc1nc2[nH]cc(CCc3ccc(C(=O)N[C@@H](CCC(=O)O)C(=O)O)cc3)c2c(=O)[nH]1 [Pemetrexed] (partner 0.2 µM)
# Procedure, shortened: (§1)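 Relative viability divides the nuclei count in treated wells by that in vehicle wells. Lung cancer cell lines were seeded in 1536-well plates, dosed by pin tool the next day, and fixed and stained after 5 days in one step with final 0.05% Triton X-100, 1% formaldehyde and 1 ug/ml Hoechst. Dosing was a single drug or a fixed anchor-drug dose plus five library-drug doses (not always all listed) in √10 steps, and values are medians of duplicate plates imaged at 4×.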
# Dactolisib + Trametinib = compound: Cn1c(=O)n(-c2ccc(C(C)(C)C#N)cc2)c2c3cc(-c4cnc5ccccc5c4)ccc3ncc21 [Dactolisib] + CC(=O)Nc1cccc(-n2c(=O)n(C3CC3)c(=O)c3c(Nc4ccc(I)cc4F)n(C)c(=O)c(C)c32)c1 [Trametinib] (partner 0.02 µM)
# Procedure, shortened: as §1
# Dactolisib + Foretinib = compound: Cn1c(=O)n(-c2ccc(C(C)(C)C#N)cc2)c2c3cc(-c4cnc5ccccc5c4)ccc3ncc21 [Dactolisib] + COc1cc2c(Oc3ccc(NC(=O)C4(C(=O)Nc5ccc(F)cc5)CC4)cc3F)ccnc2cc1OCCCN1CCOCC1 [Foretinib] (partner 0.25 µM)
# Procedure, shortened: as §1
# Dactolisib + Pemetrexed = compound: Cn1c(=O)n(-c2ccc(C(C)(C)C#N)cc2)c2c3cc(-c4cnc5ccccc5c4)ccc3ncc21 [Dactolisib] + Nc1nc2[nH]cc(CCc3ccc(C(=O)N[C@@H](CCC(=O)O)C(=O)O)cc3)c2c(=O)[nH]1 [Pemetrexed] (partner 0.2 µM)
# Procedure, shortened: as §1
cell line,measurement,setting,value
HCC-78,relative viability,AZ505 + Pemetrexed; first compound 0.8 µM,0.916
same,relative viability,AZ505 + Pemetrexed; first compound 2.53 µM,0.904
same,relative viability,AZ505 + Pemetrexed; first compound 8 µM,0.918
same,relative viability,Dactolisib + Trametinib; first compound 0.002 µM,0.726
same,relative viability,Dactolisib + Trametinib; first compound 0.006325 µM,0.851
same,relative viability,Dactolisib + Trametinib; first compound 0.02 µM,0.69
same,relative viability,Dactolisib + Trametinib; first compound 0.06325 µM,0.445
same,relative viability,Dactolisib + Trametinib; first compound 0.2 µM,0.312
same,relative viability,Dactolisib + Foretinib; first compound 0.002 µM,0.629
same,relative viability,Dactolisib + Foretinib; first compound 0.006325 µM,0.589
same,relative viability,Dactolisib + Foretinib; first compound 0.02 µM,0.451
same,relative viability,Dactolisib + Foretinib; first compound 0.06325 µM,0.376
same,relative viability,Dactolisib + Foretinib; first compound 0.2 µM,0.338
same,relative viability,Dactolisib + Pemetrexed; first compound 0.002 µM,0.833
same,relative viability,Dactolisib + Pemetrexed; first compound 0.006325 µM,0.892
same,relative viability,Dactolisib + Pemetrexed; first compound 0.02 µM,0.875
same,relative viability,Dactolisib + Pemetrexed; first compound 0.06325 µM,0.885
same,relative viability,Dactolisib + Pemetrexed; first compound 0.2 µM,0.916
LOU-NH91,relative viability,AZ505 + Pemetrexed; first compound 0.08 µM,0.327
same,relative viability,AZ505 + Pemetrexed; first compound 0.253 µM,0.338
same,relative viability,AZ505 + Pemetrexed; first compound 0.8 µM,0.324
same,relative viability,AZ505 + Pemetrexed; first compound 2.53 µM,0.382
same,relative viability,AZ505 + Pemetrexed; first compound 8 µM,0.349
same,relative viability,Dactolisib + Trametinib; first compound 0.002 µM,0.778
same,relative viability,Dactolisib + Trametinib; first compound 0.006325 µM,0.714
same,relative viability,Dactolisib + Trametinib; first compound 0.02 µM,0.679
same,relative viability,Dactolisib + Trametinib; first compound 0.06325 µM,0.557
same,relative viability,Dactolisib + Trametinib; first compound 0.2 µM,0.612
same,relative viability,Dactolisib + Foretinib; first compound 0.002 µM,0.897
same,relative viability,Dactolisib + Foretinib; first compound 0.006325 µM,0.921
same,relative viability,Dactolisib + Foretinib; first compound 0.02 µM,0.9
same,relative viability,Dactolisib + Foretinib; first compound 0.06325 µM,0.658
same,relative viability,Dactolisib + Foretinib; first compound 0.2 µM,0.548
same,relative viability,Dactolisib + Pemetrexed; first compound 0.002 µM,0.287
same,relative viability,Dactolisib + Pemetrexed; first compound 0.006325 µM,0.377
same,relative viability,Dactolisib + Pemetrexed; first compound 0.02 µM,0.372
same,relative viability,Dactolisib + Pemetrexed; first compound 0.06325 µM,0.431
same,relative viability,Dactolisib + Pemetrexed; first compound 0.2 µM,0.445
NCI-H3122,relative viability,AZ505 + Pemetrexed; first compound 0.08 µM,0.196
same,relative viability,AZ505 + Pemetrexed; first compound 0.253 µM,0.197
same,relative viability,AZ505 + Pemetrexed; first compound 0.8 µM,0.196
same,relative viability,AZ505 + Pemetrexed; first compound 2.53 µM,0.201
same,relative viability,AZ505 + Pemetrexed; first compound 8 µM,0.199
same,relative viability,Dactolisib + Trametinib; first compound 0.002 µM,0.207
same,relative viability,Dactolisib + Trametinib; first compound 0.006325 µM,0.218
same,relative viability,Dactolisib + Trametinib; first compound 0.02 µM,0.232
same,relative viability,Dactolisib + Trametinib; first compound 0.06325 µM,0.219
same,relative viability,Dactolisib + Trametinib; first compound 0.2 µM,0.176
same,relative viability,Dactolisib + Foretinib; first compound 0.002 µM,0.932
same,relative viability,Dactolisib + Foretinib; first compound 0.006325 µM,0.934
same,relative viability,Dactolisib + Foretinib; first compound 0.02 µM,1.05
same,relative viability,Dactolisib + Foretinib; first compound 0.06325 µM,1.03
same,relative viability,Dactolisib + Foretinib; first compound 0.2 µM,0.855
same,relative viability,Dactolisib + Pemetrexed; first compound 0.002 µM,0.171
same,relative viability,Dactolisib + Pemetrexed; first compound 0.006325 µM,0.189
same,relative viability,Dactolisib + Pemetrexed; first compound 0.02 µM,0.203
same,relative viability,Dactolisib + Pemetrexed; first compound 0.06325 µM,0.192
same,relative viability,Dactolisib + Pemetrexed; first compound 0.2 µM,0.211
HCC-827,relative viability,AZ505 + Pemetrexed; first compound 0.08 µM,0.288
same,relative viability,AZ505 + Pemetrexed; first compound 0.253 µM,0.269
same,relative viability,AZ505 + Pemetrexed; first compound 0.8 µM,0.288
same,relative viability,AZ505 + Pemetrexed; first compound 2.53 µM,0.264
same,relative viability,AZ505 + Pemetrexed; first compound 8 µM,0.266
same,relative viability,Dactolisib + Trametinib; first compound 0.002 µM,0.582
same,relative viability,Dactolisib + Trametinib; first compound 0.006325 µM,0.563
same,relative viability,Dactolisib + Trametinib; first compound 0.02 µM,0.477
same,relative viability,Dactolisib + Trametinib; first compound 0.06325 µM,0.313
same,relative viability,Dactolisib + Trametinib; first compound 0.2 µM,0.269
same,relative viability,Dactolisib + Foretinib; first compound 0.002 µM,0.995
same,relative viability,Dactolisib + Foretinib; first compound 0.006325 µM,1.04
same,relative viability,Dactolisib + Foretinib; first compound 0.02 µM,0.913
same,relative viability,Dactolisib + Foretinib; first compound 0.06325 µM,0.815
same,relative viability,Dactolisib + Foretinib; first compound 0.2 µM,0.283
same,relative viability,Dactolisib + Pemetrexed; first compound 0.002 µM,0.216
same,relative viability,Dactolisib + Pemetrexed; first compound 0.006325 µM,0.222
same,relative viability,Dactolisib + Pemetrexed; first compound 0.02 µM,0.219
same,relative viability,Dactolisib + Pemetrexed; first compound 0.06325 µM,0.213
same,relative viability,Dactolisib + Pemetrexed; first compound 0.2 µM,0.145
SW 1573,relative viability,AZ505 + Pemetrexed; first compound 0.08 µM,0.761
same,relative viability,AZ505 + Pemetrexed; first compound 0.253 µM,0.851
same,relative viability,AZ505 + Pemetrexed; first compound 0.8 µM,0.928
same,relative viability,AZ505 + Pemetrexed; first compound 2.53 µM,0.869
same,relative viability,AZ505 + Pemetrexed; first compound 8 µM,0.876
same,relative viability,Dactolisib + Trametinib; first compound 0.002 µM,0.529
same,relative viability,Dactolisib + Trametinib; first compound 0.006325 µM,0.438
same,relative viability,Dactolisib + Trametinib; first compound 0.02 µM,0.482
same,relative viability,Dactolisib + Trametinib; first compound 0.06325 µM,0.144
same,relative viability,Dactolisib + Trametinib; first compound 0.2 µM,0.163
same,relative viability,Dactolisib + Foretinib; first compound 0.002 µM,0.996
same,relative viability,Dactolisib + Foretinib; first compound 0.006325 µM,0.964
same,relative viability,Dactolisib + Foretinib; first compound 0.02 µM,0.875
same,relative viability,Dactolisib + Foretinib; first compound 0.06325 µM,0.34
same,relative viability,Dactolisib + Foretinib; first compound 0.2 µM,0.371
same,relative viability,Dactolisib + Pemetrexed; first compound 0.002 µM,0.696
same,relative viability,Dactolisib + Pemetrexed; first compound 0.006325 µM,0.768
same,relative viability,Dactolisib + Pemetrexed; first compound 0.02 µM,0.584
same,relative viability,Dactolisib + Pemetrexed; first compound 0.06325 µM,0.284
same,relative viability,Dactolisib + Pemetrexed; first compound 0.2 µM,0.203
NCI-H1975,relative viability,AZ505 + Pemetrexed; first compound 0.08 µM,0.289
same,relative viability,AZ505 + Pemetrexed; first compound 0.253 µM,0.311
same,relative viability,AZ505 + Pemetrexed; first compound 0.8 µM,0.309
same,relative viability,AZ505 + Pemetrexed; first compound 2.53 µM,0.307
same,relative viability,AZ505 + Pemetrexed; first compound 8 µM,0.301
same,relative viability,Dactolisib + Trametinib; first compound 0.002 µM,0.36
same,relative viability,Dactolisib + Trametinib; first compound 0.006325 µM,0.292
same,relative viability,Dactolisib + Trametinib; first compound 0.02 µM,0.323
same,relative viability,Dactolisib + Trametinib; first compound 0.06325 µM,0.191
same,relative viability,Dactolisib + Trametinib; first compound 0.2 µM,0.161
same,relative viability,Dactolisib + Foretinib; first compound 0.002 µM,1.06
same,relative viability,Dactolisib + Foretinib; first compound 0.006325 µM,0.897
same,relative viability,Dactolisib + Foretinib; first compound 0.02 µM,0.715
same,relative viability,Dactolisib + Foretinib; first compound 0.06325 µM,0.454
same,relative viability,Dactolisib + Foretinib; first compound 0.2 µM,0.334
same,relative viability,Dactolisib + Pemetrexed; first compound 0.002 µM,0.299
same,relative viability,Dactolisib + Pemetrexed; first compound 0.006325 µM,0.32
same,relative viability,Dactolisib + Pemetrexed; first compound 0.02 µM,0.297
same,relative viability,Dactolisib + Pemetrexed; first compound 0.06325 µM,0.244
same,relative viability,Dactolisib + Pemetrexed; first compound 0.2 µM,0.181
NCI-H1651,relative viability,AZ505 + Pemetrexed; first compound 0.08 µM,0.529
same,relative viability,AZ505 + Pemetrexed; first compound 0.253 µM,0.557
same,relative viability,AZ505 + Pemetrexed; first compound 0.8 µM,0.608
same,relative viability,AZ505 + Pemetrexed; first compound 2.53 µM,0.679
same,relative viability,AZ505 + Pemetrexed; first compound 8 µM,0.6
same,relative viability,Dactolisib + Trametinib; first compound 0.002 µM,0.816
same,relative viability,Dactolisib + Trametinib; first compound 0.006325 µM,0.825
same,relative viability,Dactolisib + Trametinib; first compound 0.02 µM,0.822
same,relative viability,Dactolisib + Trametinib; first compound 0.06325 µM,0.599
same,relative viability,Dactolisib + Trametinib; first compound 0.2 µM,0.452
same,relative viability,Dactolisib + Foretinib; first compound 0.002 µM,0.918
same,relative viability,Dactolisib + Foretinib; first compound 0.006325 µM,0.782
same,relative viability,Dactolisib + Foretinib; first compound 0.02 µM,0.561
same,relative viability,Dactolisib + Foretinib; first compound 0.06325 µM,0.321
same,relative viability,Dactolisib + Foretinib; first compound 0.2 µM,0.345
same,relative viability,Dactolisib + Pemetrexed; first compound 0.002 µM,0.53
same,relative viability,Dactolisib + Pemetrexed; first compound 0.006325 µM,0.654
same,relative viability,Dactolisib + Pemetrexed; first compound 0.02 µM,0.533
same,relative viability,Dactolisib + Pemetrexed; first compound 0.06325 µM,0.329
same,relative viability,Dactolisib + Pemetrexed; first compound 0.2 µM,0.299

# Source: the supplement of paper PMC10307832
